In a melting point compilation (Tetko et al.; mined from patent text by program, amines drawn as free bases though some values may be those of a salt):

Compound | melting point
O=C(O)CN(CC(=O)O)C(=O)C(=O)c1ccc(OCCCCCCCCCCCCOc2ccccc2)cc1 | 130 to 132 °C
COc1ccc(-c2cc(F)c(F)cc2-c2ccc(S(C)(=O)=O)cc2)cc1OC | 140 to 141 °C
O=C=Nc1cc([N+](=O)[O-])c(Cl)cc1F | 43 to 46 °C
COc1cc2c(c3c1OC(C)(C)C3)C(c1cccc(NS(=O)(=O)N(C)C)c1)=NC(C)(C)C2 | 134 to 136 °C
CCOC(=O)C(=Cc1cc(C(=O)OCC)c(=O)n2ccccc12)C(=O)OCC | 149 to 151 °C
O=P(O)(O)C(O)(Cc1cccc(Cl)c1)P(=O)(O)O | 198 to 200 °C
CC(=O)c1cc(-c2ccncc2)[nH]c1C | 236 to 237 °C
CCC(=O)Nc1c(Cl)cc(Cl)c(-c2nsc(C(F)(F)F)c2Cl)c1Br | 156 °C
O=C(Nc1ccc(Cl)cc1C(=O)NCc1ccc2c(c1)OCO2)Oc1ccccc1 | 149 to 150 °C
CC(=O)SCC(=O)c1ccc(Cl)c(S(N)(=O)=O)c1 | 137 °C
Cc1cc2c(cc1S(=O)(=O)c1ccc(F)cc1)OC(C(=O)O)O2 (stereo not given) | 157 to 158 °C
CC(C)n1nc(CC(=O)c2cccc(Cl)c2)ccc1=O | 85 to 86 °C
O=C(O)C1CCc2cc(O)ccc21 (stereo not given) | 137 to 138 °C
COc1cc2ncc(N[C@@H]3C[C@H]4CC[C@@H]3C4)nc2cc1OC | 184 to 186 °C
COc1ccc(C(=O)c2ccc(Cl)nc2)c(OCc2ccccc2)c1 | 93 to 94 °C
O=C1CCC(N2Cc3c(OCc4cc(Cl)cc(Cl)c4)cccc3C2=O)C(=O)N1 (stereo not given) | 271 to 273 °C
CCOC(=O)C1=Cc2cc(Cl)c(Oc3ccc(CC)cc3)cc2OC1C(F)(F)F (stereo not given) | 109 to 110 °C
O=c1n(-c2ccc(N3CCNCC3)cc2)cnn1CC(F)(F)C(F)F | 155 to 157 °C
COc1ccccc1C1C(=O)Nc2cc(C)c(Cl)cc21 (stereo not given) | 193 °C
O=C(O)C=Cc1ccc(/C=C/c2ccncc2)cc1 | > 300 °C
C=C1CC(COc2ccc3c(C)c(Cl)c(=O)oc3c2)(c2ccccc2)OC1=O (stereo not given) | 149 to 150 °C
Cn1c(C2CC2)nc2c(O)c(C(=O)[C@H](O)[C@@H](O)c3ccccc3)ccc21 | 156 °C
COc1ccc(-c2cc(=O)n(CC=Cc3ccc(F)cc3F)nc2-c2ccc(OC)cc2)cc1 | 107 to 108 °C
CS(=O)(=O)c1ccc(-c2cnn(CC(F)(F)F)c(=O)c2OC2CCCC2)cc1 | 148 to 150 °C
COC(=O)c1c(OC)cc(C=O)cc1OC | 113 to 114 °C

Compound | melting point
CN1CCCC1=NC(=O)Nc1cccc(C#N)c1 | 145 to 147 °C
COC(=O)C(Cc1ccc(OCCc2nc(-c3ccccc3)oc2C)cc1)C(=O)NC(N)=O (stereo not given) | 74.6 to 75.6 °C
Clc1ccc(OC(c2cccnc2)n2cncn2)c(Cl)c1 (stereo not given) | 75.5 to 78 °C
CC(=O)OC1CCC2(C)C(CCC3=C4C(=O)CC(C(C)CCCOS(=O)(=O)c5ccc(C)cc5)C4(C)CCC32)C1 (stereo not given) | 158 to 160 °C
CC(C)c1c(Cl)[nH]c(=O)[nH]c1=O | 250 to 251 °C
CCOC(=O)C1=C2COC=CN2C(C)=C(C(=O)OC)C1c1ccccc1Cl (stereo not given) | 126 to 127 °C
CON=C(C(=O)O)c1nsc(NC=O)n1 | 185 to 186 °C
COC(=O)CCCc1cc2cc(Cl)ccc2n1S(=O)(=O)c1ccc2ncsc2c1 | 121 to 123 °C
COC(=O)c1ccc(Cn2nc(Br)c3ccc(C(=O)NCC4CCCC4)cc32)c(OC)c1 | 161 to 162 °C
O=C1CC(C(O)(c2ccc(F)cc2)c2ccc(F)cc2)CN1Cc1ccccc1 (stereo not given) | 158 to 160 °C
CCCCCCCCCC(=O)OC1CCC2C3CCC4=CC(=O)CCC4C3CCC12CC (stereo not given) | 97 to 97.5 °C
CC(C)(C)C(=O)C(Oc1ccccc1)C(=O)Nc1ccc(Cl)cc1Cl (stereo not given) | 112 to 114 °C
O=C(O)c1cc(Br)c(Cl)cc1O | 208 to 213 °C
CCCCCS(=O)(=O)NC(=O)CCc1ccc(OCCOC)cc1Oc1ncc(C(F)(F)F)cc1Cl | 140 to 142 °C
CCOC(=O)N1CCN(c2cc3ccccc3c(=O)[nH]2)CC1 | 191 to 192 °C
CCN(CC)c1nc(-c2ccc3c(c2)OCO3)nc2sc(C#N)c(C)c12 | 199 to 201 °C
CN1C(=O)CN=C(c2ccccc2F)c2c1ccc(NC(=O)NCCO)c2Cl | 150 to 153 °C
COc1cc2c(cc1OCc1ccccc1)CCN(Cc1ccncc1)C2 | 125 to 126 °C
O=Cc1ccc(OCc2csc(-c3ccccc3)n2)cc1 | 86 to 90 °C
CCOc1nn(-c2ccc(C(F)(F)F)cn2)cc1CCOc1cccc(OC(C)(C)C(=O)O)c1 | 89 to 90 °C
CN(c1ccc(I)cc1)S(C)(=O)=O | 106 to 107 °C
Cc1[nH]c(-c2nc3ccc(C(=O)c4ccccc4)cc3[nH]2)c(C)c1C(=O)O | > 300 °C
COC(=O)c1ccc(C2C(C#N)=C(CC(C)C)NC(C)=C2C(=O)OC(C)(C)C)cc1 (stereo not given) | 191 to 193 °C
Cc1cc(=O)n2cccc(OCc3ccc(Cl)cc3Br)c2n1 | 182 to 184 °C
CCOC(=O)c1cnc2c(cnn2-c2ccccc2)c1N(Cc1cccnc1)S(=O)(=O)c1ccc(OC)cc1 | 89 to 91 °C
